According to patent publication US6479466B1, “Compositions for treating viral infections, and methods therefor” (University of Maryland, priority 1999, dated 2002):
Read-outs that look alike come from different tables or passages of the source.

Key:
[1] = tested on: HIV-1SF162; assay: p24 antigen production in monocyte-derived macrophages infected with HIV-1SF162; assay type: cell-based; conditions: for virus production after drug removal on day 20: 10 μM ddI with or without 10 μM RV, 14 further days
Experimental: MDMs were prepared as described infra, and infected with the SF162 strain of HIV-1 obtained from Dr. Levy at the National Institutes of Health AIDS Research and Reference Reagent Program (Rockville, Md.). Briefly, 25×10^6 freshly isolated PBMCs were cultured for 5 days in T-25 flasks (Coming Costar, Cambridge, Mass.) containing culture medium supplemented with 20% FBS and 10% AB human serum (Gemini Bioproducts, Inc., Calabasas, Calif.). On day 5, non-adherent cells were removed by washing five times with warm RPMI/10%FBS medium. Adherent cells in representative flasks were counted by trypan blue exclusion. By morphology and cytochemical staining for nonspecific esterase (Sigma), more than 97% of cells were macrophages. HIV infection was carried out by adding virus to the flask at a multiplicity of infection of 2000 TCID50/10^6 adherent cells and incubating for 3 hours. Flasks were then washed 3 times with warm RPMI/10%FBS medium and cultured in RPMI containing 20% FBS plus drugs. Every 3 days culture supernatants were collected and fresh medium containing drugs was added to each flask. Virus replication was assayed weekly for p^24 antigen production as described in Example 1 in the supernatant. Cultures were maintained for 3 weeks.
For the present example, cultures were maintained in the presence of 10 μM RV and varying concentrations of ddI. The amount of p24 antigen produced in the supernatant was measured on days 7 and 16 after infection. […] However, a 10-fold or greater potentiation of ddI-antiviral activity was observed when the nucleoside analogue was combined with 10 μM RV.
MDMs derived from 2 seronegative donors were infected with the SF 162 strain of HIV-1 and cultured in the presence of 10 μM ddI, a plasma level attainable in treated individuals. The anti-HIV effect of this concentration of ddI was investigated in the presence or absence of 10 μM RV. DdI alone (10 μM) inhibited viral replication by more than 90% in both donors on day 7 after infection. […] The strong antiviral activity achieved by RV plus ddI on day 16 was further analyzed by removing the drugs from the culture. The drugs were then removed on day 20 and the macrophages maintained in culture for an additional 14 days. In donor #1 MDMs, a virus rebound followed drug removal in the cultures that had been exposed to ddI alone.

[2] = tested on: HTLV-IIIB; assay: p24 antigen production in PHA-activated PBMCs infected with HTLV-IIIB; assay type: cell-based, HIV-1; conditions: for inhibition at 10 µM / IC90: Human immunodeficiency virus 1, IIIB, PBMC; for IC90: read-out: IC90 (concentration of nucleoside analog that reduced the p24 antigen value of the untreated control by 90%)
From the text: The antiviral activities of RV alone and in combination with nucleoside analogs were investigated in PHA-stimulated PBMCs from seronegative donors. RV, ddC, ddI, and AZT were purchased from Sigma (St. Louis, Mo.). The HIV-1 T-cell line adapted isolate HTLV-IIIB was obtained from Dr. Gallo, at the National Institutes of Health AIDS Research and Reference Reagent Program (Catalog #398, Rockville, Md.). Primary strains of HIV-1 were isolated by coculturing 10^7 patient PBMC with an equal number of PHA-stimulated PBMC from a normal donor. Titration of stocks and MT-2 phenotype determination were carried out as described (ACTG Virology Manual, NIH Pub No. 94 3828, 1994). The SI phenotype was determined by assessing viral growth and syncytia formation in the MT-2 cell line obtained from Dr. Richman at the National Institutes of Health AIDS Research and Reference Reagent Program (Catalog #237, Rockville, Md.).
Primary PBMCs were separated from whole blood of HIV seronegative donors by density centrifugation over Ficoll-Hypaque (Sigma). The culture medium consisted of RPMI supplemented with 10% fetal bovine serum (FBS), 2 mM glutamine and penicillin/streptomycin (Gibco, Grand Island, N.Y.).
For infection studies involving PBMCs, cells were stimulated with 2.5 or 10 μg/ml phytohemagglutinin (PHA; Boehringer Mannheim, Indianapolis, Ind.) for 3 days. Stimulated PBMCs were infected by incubation with virus at a multiplicity of infection of 1000 TCID50/10^6 PBMC for 2 hours. PBMCs were then washed three times with PBS and cultured in 5% CO2 at 37° C., in RPMI/10% FBS supplemented with 10 units/ml IL-2 (Boehringer Mannheim) and drugs as appropriate. PBMCs were seeded in 96-well flat-bottom plates at a density of 2×10^5 PBMCs/200 μl. Following 3 days of culture half of the medium was replaced with fresh medium containing IL-2 and drugs. After 7 days of culture, HIV-1 p24 antigen production in the culture supernatant was assayed by ELISA (Coulter, Hialeah, Fla.). The concentration of nucleoside analog, alone and in combination with resveratrol, that reduced the p24 antigen value of the untreated control by 90% (IC90) was calculated by using nonparametric regression analysis. The analysis used the median-effect equation, Fa=1/[1+(Dm/D)]^m, where D is the dose, Fa is the fraction affected, and Dm is the dose required to produce the median effect.
Cells were infected with the T-cell tropic isolate HTLV-IIIB for 2 hours, and then cultured in varying concentrations of RV with or without nucleoside analogs. Virus replication was measured by p24 antigen production by ELISA using a standard commercial kit in the culture supernatants on days 7 and 10 after infection.
Activated PBMCs infected with HTLV-IIIB were cultured in the presence of ddI plus HU (100 μM) or RV (5 and 10 μM). […] Virus production in the presence of the different drug concentrations was evaluated on day 7 after infection.

SMILES | anti-HIV effect ([1]; RV 10 μM in the absence of ddI, 2 donors) | inhibition at 10 µM ([2]; 168 h, 10 μM RV combined with 0.5 μM ddI, day 7, read-out: inhibition of virus replication) [%] | inhibition at 10 µM ([2]; 168 h, 10 μM RV in combination with 0.25 μM ddI, day 7, read-out: inhibition of HIV-1 replication) [%] | inhibition at 10 µM ([2]; RV 10 μM alone, read-out: inhibition of viral replication) [%] | reduction of virus production ([2]; RV 5 μM alone) | inhibition at 10 µM ([1]; Human immunodeficiency virus 1, Macrophage, 168 h, ddI alone 10 μM, both donors, day 7, read-out: inhibition of viral replication) [%] | virus production after drug removal on day 20 ([1]; donor #1 MDMs) | virus production after drug removal on day 20 ([1]; donor #2 MDMs) | IC90 ([2]; 168 h, in combination with 5 μM RV, day 7) [µM] | IC90 ([2]; 168 h, nucleoside analog alone, day 7) [µM] | increase in antiviral activity ([2]; addition of 10 μM RV to 2 μM ddI) [fold] | reduction of IC90 value ([2]; in combination with 5 μM RV) [fold] | reduction of IC90 value ([2]; in the presence of 10 μM RV) [fold]
Oc1ccc(/C=C/c2cc(O)cc(O)c2)cc1 [RV, trans-3, 4′, 5-trihydroxystilbene] | only a modest anti-HIV effect | > 99 | 94 | ~30 | approximately 10% | – | – | – | – | – | – | – | –
OC[C@@H]1CC[C@H](n2cnc3c(O)ncnc32)O1 [ddI, 2′,3′-dideoxyinosine] | – | – | – | – | – | > 90 | virus rebound | continued releasing virus | 1.3 | 7.5 | 200 | 5.7 | 17.8
